Assay results as given in EP0365134A1, “Synergistic compositions of renal dopaminergic agent and angiotensin converting enzyme inhibitors” (priority 1988, dated 1990).

Assay: Renal clearance study in unanesthetized dogs: effective renal plasma flow (PAH clearance) and glomerular filtration rate (creatinine clearance)
Assay type: in vivo
Details: alone
Method: A modification of the renal function protocol, described in the prior art, was used for renal clearance studies in adult, trained, unanesthetized, fasted, female mongrel dogs, lightly restrained on their backs on a cradle-like board constructed specifically for this purpose. […] All dogs were given an oral water load of 500 ml of tap water thirty minutes prior to initiation of the study. […] Suitable plasma levels of creatinine and p-aminohippuric acid were obtained by a thirty minute infusion of this solution prior to starting of the initial urine collection (U₁) In addition, 1.5 ml/kg of a 1% creatinine solution in phosphate buffer was injected intravenously fifteen minutes prior to collection of U₁. Replicate urine collections were obtained at ten minute intervals throughout the experiment. The bladder was emptied by an indwelling catheter and complete urine collections were assured by rinsing the bladder with 10 mls of warm water at the end of each collection interval. This procedure was followed by an air washout. Venous blood samples were drawn from an indwelling catheter at the mid-point of each clearance period. Urine volumes were recorded at the time of collection. Plasma and urine samples were stored frozen, after collection, until analyzed. Analyses for creatinine and p-aminohippuric acid were made, by colorimetry, using standard AutoAnalyzer methodologies. These analyses were made simultaneously on each sample. Peak intensities were identified electronically, recorded on "on-line" teletype, stored and subsequently analyzed mathematically by time-shared computer against appropriate standards. Data were computed from linear least square regression lines, and quality control standards were analyzed simultaneously to evaluate system reproducibility and reliability. The bladder was emptied upon beginning the study and three control clearances (U₁-U₃, Phase 1) were obtained. […] Post-drug clearance C₄-C₆, C₇-C₉, C₁₀-C₁₂ (Phases II, III and IV) were collected immediately, with no delay between C₃ and C₄. […] Four dogs were used for each treatment. All compounds were weighed as free base content.

CS(=O)(=O)O.Oc1ccc(C2CNCCc3c2cc(O)c(O)c3Cl)cc1 (centres unmarked) [Fenoldopam, 6-Chloro-7,8-dihydroxy-1-(4-hydroxyphenyl)-2,3,4,5-tetrahydro-1H-3-benzazepine methyl sulfonate]
ERPF ( % from control) (Fenoldopam 2.5 mg/kg orally): 34 ± 5 % from control | GFR ( % from control) (Fenoldopam 2.5 mg/kg orally): -2 ± 2 % from control | ERPF ( % from control) (Fenoldopam 5.0 mg/kg orally): 47 ± 16 % from control | GFR ( % from control) (Fenoldopam 5.0 mg/kg orally): 6 ± 5 % from control | ERPF ( % from control) (Fenoldopam 10 mg/kg orally): 30 ± 2 % from control | GFR ( % from control) (Fenoldopam 10 mg/kg orally): -1 ± 2 % from control | ERPF ( % from control) (Fenoldopam 20 mg/kg orally): 44 ± 15 % from control | GFR ( % from control) (Fenoldopam 20 mg/kg orally): 1 ± 3 % from control
